Biological target: T1, Dimer of Gag-Pol polyprotein [489-587] (Human immunodeficiency virus 1, UniProt P12497)
T1 construct: 489-587
Assay: Protease Inhibition Assay
Conditions: pH 5.5; 37 °C
Protocol: Sensitivity of HIV-1 protease activity to protease inhibitors was determined by a peptide substrate cleavage assay. Protease products were analyzed on a reverse-phase high-pressure liquid chromatograph.

Compound | Ki [nM] | IC50 [nM]
CC(C)(C)OC(=O)N[C@@H](Cc1ccccc1)[C@H](O)CNC[C@@H](O)[C@H](Cc1ccccc1)NC(=O)OC(C)(C)C [tert-butyl N-[(2S,3R)-4-{[(2R,3S)-3-{[(tert-butoxy)carbonyl]amino}-2-hydroxy-4-phenylbutyl]amino}-3-hydroxy-1-phenylbutan-2-yl]carbamate] | 100 | 
CC(C)(C)OC(=O)N[C@@H](CC1CCCCC1)[C@H](O)CNC[C@@H](O)[C@H](CC1CCCCC1)NC(=O)OC(C)(C)C [(R,S)-[Iminobis[1-(cyclohexylmethyl)-2-hydroxy-3,1-propanediyl]]bis[carbamic acid], Bis(1,1-dimethylethylester)] |  | 800
CC(C)(C)OC(=O)N[C@@H](Cc1ccccc1)[C@H](O)CNC[C@@H](O)[C@H](Cc1ccc(O)cc1)NC(=O)OC(C)(C)C [BMS-186318 analog 4] |  | 100
CC(C)(C)OC(=O)N[C@@H](CCc1ccccc1)[C@H](O)CNC[C@@H](O)[C@H](Cc1ccccc1)NC(=O)OC(C)(C)C [tert-butyl N-[(2S,3R)-4-{[(2R,3S)-3-{[(tert-butoxy)carbonyl]amino}-2-hydroxy-5-phenylpentyl]amino}-3-hydroxy-1-phenylbutan-2-yl]carbamate] |  | 500
